Reference: patent publication US6420119B1, “Methods of diagnosing and treating urinary incontinence relating to collagen proteolysis in pelvic supporting tissue” (The Board of Trustees of the Leland Stanford Jr. University, priority 1999, dated 2002)
Structures can show the parent of a compound that is named as a salt.

Experiments:
[1] = tested on: procollagenase; details: pregnant guinea pig cervix; cited from earlier work
[2] = tested on: procollagenase; details: cultured rabbit uterine cervical fibroblasts; cited from earlier work
[3] = tested on: TIMPs; details: cultured rabbit uterine cervical fibroblasts; cited from earlier work
[4] = tested on: collagenase; details: human cervix, intravenous; cited from earlier work
[5] = patients with advanced lung carcinoma; relative to levels required for MMP inhibition in vitro; cited from earlier work
[6] = tested on: matrix metalloproteinases; details: human endometrium during the menstrual cycle; cited from earlier work
[7] = tested on: TIMP-1; assay: TIMP-1 mRNA expression in cultured human endometrial stromal cells; assay type: cell-based; details: vs control cells
Excerpt: (§1) (a) GnRH Agonist: Trophoblast invasion is regulated in part by MMP-9 which can be inhibited by both TIMP-1 and TIMP-3 (25). […] Moreover, the expression of TIMP-1 appeared to be affected to a much greater extent than that of TIMP-3 (26).
(§2) Our laboratory has examined the ability of IL-1β and transforming growth factor-β (TGF-13) to regulate MMP-9, TIMP-1, and TIMP-3 mRNA expression in cultured human endometrial stromal cells (28). In these cultured endometrial stromal cells, TIMP-1 and TIMP-3 but not MMP-9 mRNA were expressed.

[8] = tested on: TIMP-3; assay: TIMP-3 mRNA expression in cultured human endometrial stromal cells; assay type: cell-based; details: vs control cells
Excerpt: as §1, §2

[9] = tested on: MMP-9; assay: MMP-9 mRNA expression in cultured human endometrial stromal cells; assay type: cell-based
Excerpt: as §2

C[C@]12CC[C@@H]3c4ccc(O)cc4CC[C@H]3[C@@H]1CC[C@@H]2O [17β-estradiol]
procollagenase activity [1]: doubled
levels of procollagenase in the culture medium [2]: declined
level of TIMPs in the culture media [3]: increased

C[C@]12CC[C@H](OS(=O)(=O)O)CC1=CC[C@@H]1[C@@H]2CC[C@]2(C)C(=O)CC[C@@H]12 [DHEAS, dehydroepiandosterone sulfate]
increase in collagenase activity [4]: over 150%

CNC(=O)[C@@H](NC(=O)[C@H](CC(C)C)[C@H](O)C(=O)NO)C(C)(C)C [Marimastat]
plasma levels [5]: substantially higher than those required for MMP inhibition in vitro

CC(=O)[C@H]1CC[C@H]2[C@@H]3CCC4=CC(=O)CC[C@]4(C)[C@H]3CC[C@]12C [progesterone]
levels of procollagenase in the culture medium [2]: declined
level of TIMPs in the culture media [3]: increased
gene expression of matrix metalloproteinases [6]: repressed

IL-1β: cytokine
TIMP-1 mRNA expression [7]: decrease
TIMP-3 mRNA expression [8]: decrease
MMP-9 expression [9]: stimulation
procollagenase production [1]: two-fold increase

TGF-β
TIMP-1 mRNA expression [7]: augmented
TIMP-3 mRNA expression [8]: augmented
